Literature values, collected in patent US9981895B1 (Parnative, Inc., priority 2015, dated 2018).

What was measured:
HeLa cell line = conditions: MTT assay, Abbott et al. 2010
RAW 264.7 cell line = conditions: MTT assay, Abbott et al. 2010
[1] = TBARS assay; CPC-purified compounds; Abbott et al. 2010

Compound | concentration at which cytotoxicity was demonstrated (HeLa cell line) | concentration at which cytotoxicity was demonstrated (RAW 264.7 cell line) | dose at which oxidation was inhibited [1]
5-RE)-2-(4-hydroxyphenyl) ethenyl]-2-[(1E)-2-phenylprop-1-en-1-yl]benzene-1,3-diol [arachidin-3] | 55 µM | 55 µM | 14 µM
CC(C)/C=C/c1c(O)cc(/C=C/c2ccc(O)c(O)c2)cc1O [arachidin-1] | 27 µM | 27 µM | 7 µM
